Assays:
Assay type in all cases: in vivo, rat
[1] = tested on: substance P-induced scratching behavior; test: substance P-induced scratching behavior after intrathecal pre-administration of test peptide
Protocol: In Example 1, 10^−3M (10 nmol/10 μl) EKC/D or D-EKC/D (1), (2) or (3) was administered to intrathecally catheterized rats via catheters. After the predetermined time periods denoted on the horizontal axis in FIG. 1, the numbers of scratching events (scratching behavior) induced by intrathecal administration of 10^−3M (10 nmol/10 μl) substance P (hereafter, referred to as “SP”) were determined. Here, the expression “10^−3M (10 nmol/10 μl) EKC/D or D-EKC/D (1), (2), or (3) was administered” refers to a situation in which 10 μl in total of a solution (that is, 10^−3M solution) containing 10 nmol of EKC/D or D-EKC/D (1), (2), or (3) was all administered. The expression, “ . . . administration of 10^−3M substance P (10 nmol/10 μl)” refers to a situation in which 10 μl in total of a solution (that is, 10^−3M solution) containing 10 nmol of the substance was all administered. The same similarly applies below.
Meanwhile, saline (10 μl) was intrathecally administered to intrathecally catheterized rats via catheters and then, after 30 minutes, 10^−3M SP (10 nmol/10 μl) was intrathecally administered to the rats. The number of the thus induced scratching events was determined to be the number of scratching events in the control group. The control group is denoted with saline-4-SP in FIG. 1.
The vertical axis of the graph in FIG. 1 indicates changes in the numbers of scratching events (represented by relative values) due to administration of 10^−3M EKC/D or D-EKC/D (1), (2), or (3) when the number of scratching events (of untreated rats in a control group) induced by intrathecal administration of 10^−3M substance P was determined to be 100%. Meanwhile, the horizontal axis indicates the intervals between the administration of EKC/D, D-EKC/D (1), (2), or (3) and 10^−3M substance P. […]
The test was conducted with procedures similar to those in Example 1, except for 4 hours of interval between the administration of each test peptide and the administration of substance P. The concentration of each test peptide and that of substance P for administration were determined to be 10^−3M (10 nmol/10 μl), similarly to Example 1. The number of scratching events in the control group was determined with procedures similar to those in Example 1, such that substance P was administered at 30 minutes after administration of saline (10 μl) and then the number was determined.

[2] = tested on: carrageenan-induced inflammation; test: carrageenan-induced increase in paw size after intrathecal pre-administration of peptide
Protocol: In Example 6, 10^−3M (10 nmol/10 μl) D-EKC/D (3), (5), or (7), Spantide I, or saline (10 μl) was administered to intrathecally catheterized rats via catheters. Four hours later, 100 μl of 2% carrageenan (2 mg/100 μl) was subcutaneously administered to rat plantar.
Paw size was measured with time for 60 minutes after carrageenan administration. The paw size (control) before carrageenan administration was designated as the basal level, and the increases in paw size were then calculated.

[3] = paw size after subcutaneous administration of peptide alone to plantar; details: 10^-3M D-EKC/D (3) subcutaneous to plantar; for paw plantar size after administration of peptide alone: FIG. 10A
Protocol: 100 μlof saline or 10^−3M (100 nmol/100 D-EKC/D (3) was subcutaneously administered to rat plantar. Paw size was measured with time for 60 minutes after administration. Paw size (control) before administration was designated as the basal level, and increases in paw size were then calculated.

## Ala-Tyr-Gln-Leu-Glu-His-Thr-Phe-Gln-DTrp-Leu-Leu-NH2 (AYQLEHTFQXLL; HELM PEPTIDE1{A.Y.Q.L.E.H.T.F.Q.[dW].L.L.[am]}$$$$V2.0; N-terminus assumed; SMILES CC(C)C[C@H](NC(=O)[C@H](CC(C)C)NC(=O)[C@@H](Cc1c[nH]c2ccccc12)NC(=O)[C@H](CCC(N)=O)NC(=O)[C@H](Cc1ccccc1)NC(=O)[C@@H](NC(=O)[C@H](Cc1c[nH]cn1)NC(=O)[C@H](CCC(=O)O)NC(=O)[C@H](CC(C)C)NC(=O)[C@H](CCC(N)=O)NC(=O)[C@H](Cc1ccc(O)cc1)NC(=O)[C@H](C)N)[C@@H](C)O)C(N)=O) [D-EKC/D (3)]
[1]; 10^-3M (10 nmol/10 μl) peptide intrathecal, 10^-3M SP 30 minutes after peptide, FIG. 1
  number of scratching events induced by substance P, relative to control group (saline+SP = 100%): about 20%
[1]; 10^-3M peptide intrathecal, administration interval of 45 minutes, FIG. 1
  number of scratching events induced by substance P, relative to control group: almost the same effects were exhibited
[1]; Example 1, intervals of 4 hours, 8 hours, and 14 hours between peptide and SP, both 10^-3M
  suppressive effects on substance P-induced scratching behavior: significant suppressive effects
[1]; Example 2, FIG. 2, 10^-3M peptide, SP 4 hours after peptide, control about 380 scratching
  scratching behavior induced by substance P: almost never induced
[1]; Example 2, FIG. 2, 10^-3M peptide, interval 8 hours and then 14 hours
  suppressive effects on scratching as administration interval is prolonged: gradually attenuated
[1]; Example 3, FIG. 3, 10^-3M peptide, SP 4 hours after peptide, control 380 scratching
  scratching behavior induced by substance P / suppressive effects: almost never induced
[2]; 10^-3M (10 nmol/10 μl) peptide intrathecal, 2% carrageenan 4 hours later, FIG. 9A
  rate of increase of paw sizes: significant decreases
[2]; 10^-3M intrathecal, carrageenan 4 hours later
  effects on paw size and withdrawal time compared with Spantide I: sustained to a greater extent than the effects of Spantide I
[3]
  inflammation reaction caused by the peptide: no inflammation reaction took place
[3]; 60 minutes after administration
  paw plantar size after administration of peptide alone: restored to near the basal (control) level
[3]; early after administration
  paw plantar size after administration of peptide alone: tentatively increased
